Measurements as given in publication PMC7026418, “The kinase polypharmacology landscape of clinical PARP inhibitors” (Scientific Reports, 2020).
Like-named read-outs stand apart in the source and are kept apart here.

Legend:
Assay in all cases: biochemical
Set-up in all cases: DiscoveRx KINOMEscan active site-directed competition binding; percent of control kinase bound to immobilised ligand
[1] = target: T1, TYRO3 (Homo sapiens, UniProt Q06418)
T1 sequence (Q06418 1-890): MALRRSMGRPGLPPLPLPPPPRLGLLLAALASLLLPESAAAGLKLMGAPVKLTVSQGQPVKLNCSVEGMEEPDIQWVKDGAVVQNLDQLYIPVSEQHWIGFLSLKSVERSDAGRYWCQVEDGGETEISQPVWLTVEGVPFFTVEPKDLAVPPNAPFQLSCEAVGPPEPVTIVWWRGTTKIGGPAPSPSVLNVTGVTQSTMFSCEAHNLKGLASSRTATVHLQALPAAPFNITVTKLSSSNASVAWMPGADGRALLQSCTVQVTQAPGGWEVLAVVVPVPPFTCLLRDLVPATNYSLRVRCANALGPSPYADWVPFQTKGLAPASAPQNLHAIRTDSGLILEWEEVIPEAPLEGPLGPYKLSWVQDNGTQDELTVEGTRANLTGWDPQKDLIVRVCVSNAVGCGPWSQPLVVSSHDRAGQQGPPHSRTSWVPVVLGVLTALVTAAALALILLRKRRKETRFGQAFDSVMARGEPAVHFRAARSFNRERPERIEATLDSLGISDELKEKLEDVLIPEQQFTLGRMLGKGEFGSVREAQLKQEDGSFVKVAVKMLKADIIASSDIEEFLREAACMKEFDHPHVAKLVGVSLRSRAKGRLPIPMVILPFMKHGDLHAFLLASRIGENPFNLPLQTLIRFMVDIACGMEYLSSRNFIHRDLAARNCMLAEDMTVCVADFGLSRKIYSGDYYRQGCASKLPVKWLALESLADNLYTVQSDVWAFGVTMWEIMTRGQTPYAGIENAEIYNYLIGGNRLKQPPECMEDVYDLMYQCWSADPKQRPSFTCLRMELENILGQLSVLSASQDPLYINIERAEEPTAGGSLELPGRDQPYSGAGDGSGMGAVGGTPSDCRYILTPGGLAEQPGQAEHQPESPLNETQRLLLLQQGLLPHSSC

[2] = target: T2, RIPK1 (Homo sapiens, UniProt Q13546)
T2 sequence (Q13546 1-671): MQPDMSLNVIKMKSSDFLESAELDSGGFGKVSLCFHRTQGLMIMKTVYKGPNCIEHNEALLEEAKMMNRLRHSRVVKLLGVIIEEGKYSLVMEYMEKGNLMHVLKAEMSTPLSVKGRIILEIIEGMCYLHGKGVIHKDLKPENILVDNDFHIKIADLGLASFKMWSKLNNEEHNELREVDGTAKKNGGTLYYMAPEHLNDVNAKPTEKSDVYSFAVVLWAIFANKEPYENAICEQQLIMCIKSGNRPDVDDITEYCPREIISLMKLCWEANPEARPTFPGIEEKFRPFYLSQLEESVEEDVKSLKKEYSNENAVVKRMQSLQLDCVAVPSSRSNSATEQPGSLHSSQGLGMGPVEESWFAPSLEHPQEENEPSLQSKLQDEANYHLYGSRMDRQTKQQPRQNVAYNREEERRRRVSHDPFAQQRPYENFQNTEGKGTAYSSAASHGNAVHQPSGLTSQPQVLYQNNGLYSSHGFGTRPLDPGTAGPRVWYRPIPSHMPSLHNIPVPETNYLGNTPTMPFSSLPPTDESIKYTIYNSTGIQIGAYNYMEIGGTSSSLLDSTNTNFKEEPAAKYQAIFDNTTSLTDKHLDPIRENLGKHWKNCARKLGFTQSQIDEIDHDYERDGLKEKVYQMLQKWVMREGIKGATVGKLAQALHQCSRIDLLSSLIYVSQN

[3] = target: T3, CASK (Homo sapiens, UniProt O14936)
T3 sequence (O14936 1-926): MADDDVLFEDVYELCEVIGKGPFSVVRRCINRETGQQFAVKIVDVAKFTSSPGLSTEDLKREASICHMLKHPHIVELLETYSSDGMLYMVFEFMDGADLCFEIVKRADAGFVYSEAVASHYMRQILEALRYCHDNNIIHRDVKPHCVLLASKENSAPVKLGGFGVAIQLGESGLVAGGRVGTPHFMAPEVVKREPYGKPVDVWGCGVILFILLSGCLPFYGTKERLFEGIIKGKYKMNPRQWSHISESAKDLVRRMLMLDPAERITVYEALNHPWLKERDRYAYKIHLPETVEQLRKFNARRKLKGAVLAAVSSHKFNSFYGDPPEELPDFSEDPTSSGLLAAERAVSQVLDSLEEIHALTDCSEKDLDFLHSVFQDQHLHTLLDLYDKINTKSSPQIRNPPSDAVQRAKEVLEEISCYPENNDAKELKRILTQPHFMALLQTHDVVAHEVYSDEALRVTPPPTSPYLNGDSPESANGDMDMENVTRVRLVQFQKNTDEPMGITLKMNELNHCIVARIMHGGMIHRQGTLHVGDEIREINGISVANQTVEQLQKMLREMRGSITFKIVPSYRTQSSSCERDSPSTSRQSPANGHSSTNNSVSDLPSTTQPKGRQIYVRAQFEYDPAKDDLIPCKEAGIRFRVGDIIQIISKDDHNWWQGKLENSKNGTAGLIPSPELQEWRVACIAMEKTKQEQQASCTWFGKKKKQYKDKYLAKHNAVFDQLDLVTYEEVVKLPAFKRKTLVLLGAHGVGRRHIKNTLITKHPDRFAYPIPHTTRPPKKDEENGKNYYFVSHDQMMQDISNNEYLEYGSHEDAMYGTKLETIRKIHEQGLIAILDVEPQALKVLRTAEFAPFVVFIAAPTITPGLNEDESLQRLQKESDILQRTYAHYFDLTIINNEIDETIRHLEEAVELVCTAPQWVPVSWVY

[4] = read-out: Niraparib (MK-4827) / %Ctrl @ 10000nM
[5] = read-out: Olaparib / %Ctrl @ 10000nM
[6] = read-out: Rucaparib / %Ctrl @ 10000nM, binding competition, % of control
[7] = read-out: Talazoparib (BMN 673) / %Ctrl @ 10000nM

Q: How did the percent of control binding at 10 µM [1, 4] turn out when `NC(=O)c1cccc2cn(-c3ccc([C@@H]4CCCNC4)cc3)nc12` [Niraparib] was run?
A: 89%

Q: What about the percent of control binding at 10 µM [2, 4] of the same compound?
A: 91%

Q: And the percent of control binding at 10 µM [3, 4]?
A: 93%

Q: Which results are given for `O=C(c1cc(Cc2n[nH]c(=O)c3ccccc23)ccc1F)N1CCN(C(=O)C2CC2)CC1` [Olaparib]?
A: percent of control binding at 10 µM [1, 5]: 100%; percent of control binding at 10 µM [2, 5]: 100%; percent of control binding at 10 µM [3, 5]: 78%

Q: Which results are given for `CNCc1ccc(-c2[nH]c3cc(F)cc4c3c2CCNC4=O)cc1` [Rucaparib]?
A: percent of control binding at 10 µM [1, 6]: 100%; percent of control binding at 10 µM [2, 6]: 99%; percent of control binding at 10 µM [3, 6]: 83%

Q: `Cn1ncnc1[C@H]1c2n[nH]c(=O)c3cc(F)cc(c23)N[C@@H]1c1ccc(F)cc1` [Talazoparib] was tested. Which percent of control binding at 10 µM [1, 7] did it give?
A: 100%

Q: And the percent of control binding at 10 µM [2, 7]?
A: 99%

Q: And the percent of control binding at 10 µM [3, 7]?
A: 79%
